# Results from patent publication US11447480B2, “Compound exhibiting enteropeptidase inhibitory activity” (LG CHEM, LTD., priority 2018, dated 2022).
# Target: Recombinant Human Enteropeptidase (Homo sapiens (Human), UniProt P98073)
# Assay: Enteropeptidase Inhibition Assay
# Type: biochemical
# Details: substrate Acetyl-Asp-Asp-Asp-Asp-Lys-AFC 30 μM, 30° C., 1 hour; Ki calculated from IC50 using Cheng-Prusoff equation
# Description: Enteropeptidase Inhibition Assay
# The inhibitory activity of the enteropeptidase inhibitor synthesized using the purified Recombinant Human Enteropeptidase and the substrate Acetyl-Asp-Asp-Asp-Asp-Lys-AFC (BioVision) was measured. 7.2 ng/mL of Enteropeptidase diluted with a buffer (20 mM Tris, 50 mM NaCl, pH 7.5) in a 96 well plate (Costar), 30 μM of Acetyl-Asp-Asp-Asp-Asp-Lys-AFC, several concentrations of Enteropeptidase inhibitors (1% DMSO concentration) were dispensed such that a final volume was 100 μL, and then the enzyme reaction was carried out at 30° C. for 1 hour. At this time, 1% DMSO, a substrate and Enteropeptidase instead of the compound were dispensed onto positive control wells, and 1% DMSO and a substrate were dispensed onto negative control wells. The enzyme reaction was […] using an excitation wavelength of 380 nm and an emission wavelength of 500 nm in a fluorescence spectrometer, and then the rate of increase in fluorescence (milli-units per min) between 20 and 60 minutes was measured.
# The fluorescence measurement values reduced by the inhibitor diluted at each concentration were converted into relative values % of the positive control group (100% reactivity) and the negative control group (0% reactivity), and used to calculate IC50 values. IC50 is the concentration of the inhibitor that inhibits the enzyme activity by 50%, and was calculated using PRISM (GraphPad). Ki values were calculated from the IC50 values using Cheng-Prusoff equation.
# Sequence of Recombinant Human Enteropeptidase (P98073 whole entry): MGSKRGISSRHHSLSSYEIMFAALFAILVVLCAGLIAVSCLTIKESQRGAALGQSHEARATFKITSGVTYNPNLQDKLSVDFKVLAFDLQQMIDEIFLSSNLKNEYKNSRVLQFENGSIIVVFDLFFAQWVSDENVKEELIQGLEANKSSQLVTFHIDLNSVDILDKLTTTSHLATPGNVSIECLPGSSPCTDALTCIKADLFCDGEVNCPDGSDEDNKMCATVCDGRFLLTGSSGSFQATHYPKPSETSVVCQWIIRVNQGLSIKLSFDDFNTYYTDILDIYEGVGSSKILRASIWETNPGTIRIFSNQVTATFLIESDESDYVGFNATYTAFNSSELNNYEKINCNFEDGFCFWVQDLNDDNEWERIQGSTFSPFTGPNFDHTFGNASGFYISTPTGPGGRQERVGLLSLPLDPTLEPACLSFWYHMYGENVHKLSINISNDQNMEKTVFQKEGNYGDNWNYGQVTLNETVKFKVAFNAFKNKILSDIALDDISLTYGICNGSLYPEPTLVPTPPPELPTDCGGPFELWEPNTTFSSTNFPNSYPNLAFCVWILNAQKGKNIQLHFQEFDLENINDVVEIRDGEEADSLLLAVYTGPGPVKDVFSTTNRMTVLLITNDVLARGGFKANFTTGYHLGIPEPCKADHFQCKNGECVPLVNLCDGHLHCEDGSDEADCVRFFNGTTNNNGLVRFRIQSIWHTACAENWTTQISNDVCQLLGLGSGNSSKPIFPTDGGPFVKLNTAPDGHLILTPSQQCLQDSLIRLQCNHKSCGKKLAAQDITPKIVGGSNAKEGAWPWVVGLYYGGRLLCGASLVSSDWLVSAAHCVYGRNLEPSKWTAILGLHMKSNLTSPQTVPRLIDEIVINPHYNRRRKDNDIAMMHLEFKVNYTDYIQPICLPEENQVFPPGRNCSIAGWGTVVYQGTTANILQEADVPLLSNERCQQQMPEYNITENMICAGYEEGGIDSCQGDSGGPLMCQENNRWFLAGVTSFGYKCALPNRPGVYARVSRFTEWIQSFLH
row,Compound,Ki [nM]
1,"COC(=O)C1CCN(c2ncc(C(=O)Oc3ccc(C(=N)N)cc3)s2)CC1 [Example 3, 4-Carbamimidoylphenyl 2-(4-(methoxycarbonyl)piperidin-1-yl)thiazole-5-carboxylate]",17
2,"COC(=O)C1CCN(c2ncc(C(=O)Oc3ccc(NC(=N)N)cc3)s2)CC1 [Example 5, 4-Guanidinophenyl 2-(4-(methoxycarbonyl)piperidin-1-yl)thiazole-5-carboxylate]",510
3,"N=C(N)Nc1ccc(OC(=O)c2cnc(N3CCC(C(=O)O)CC3)s2)cc1 [Example 6, 1-(5-((4-Guanidinophenoxy)carbonyl)thiazol-2-yl)piperidine-4-carboxylic Acid]",220
4,"COC(=O)CCN(C)c1ncc(C(=O)Oc2ccc(C(=N)N)cc2)s1 [Example 8, 4-Carbamimidoylphenyl 2-((3-methoxy-3-oxopropyl)(methyl)amino)thiazole-5-carboxylate]",28
5,CN(CCC(=O)O)c1ncc(C(=O)Oc2ccc(C(=N)N)cc2)s1 [Example 9],28
6,"COC(=O)CCNc1ncc(C(=O)Oc2ccc(C(=N)N)cc2)s1 [Example 10, 4-Carbamimidoylphenyl 2-((3-methoxy-3-oxopropyl)amino)thiazole-5-carboxylate]",11
7,"COC(=O)CCCN(C)c1ncc(C(=O)Oc2ccc(C(=N)N)cc2)s1 [Example 11, 4-Carbamimidoylphenyl 2-((4-methoxy-4-oxobutyl)(methyl)amino)thiazole-5-carboxylate]",21
8,"CCN(CCC(=O)OC)c1ncc(C(=O)Oc2ccc(C(=N)N)cc2)s1 [Example 12, 4-Carbamimidoylphenyl 2-(ethyl(3-methoxy-3-oxopropyl)amino)thiazole-5-carboxylate]",9.7
9,CCN(CCC(=O)O)c1ncc(C(=O)Oc2ccc(C(=N)N)cc2)s1 [Example 14],5.1
10,CN(CCCC(=O)O)c1ncc(C(=O)Oc2ccc(C(=N)N)cc2)s1 [Example 15],5.7
11,"COC(=O)C1CCN(c2ncc(C(=O)Oc3ccc(C(=N)N)cc3)s2)C1 (stereo not shown) [Example 16, 4-Carbamimidoylphenyl 2-(3-(methoxycarbonyl)pyrrolidin-1-yl)thiazole-5-carboxylate]",19
12,"N=C(N)c1ccc(OC(=O)c2cnc(N3CCC(C(=O)O)C3)s2)cc1 (stereo not shown) [Example 17, 1-(5-((4-Carbamimidoylphenoxy)carbonyl)thiazol-2-yl)pyrrolidine-3-carboxylic Acid]",5.4
13,"COC(=O)C(C)(C)CN(C)c1ncc(C(=O)Oc2ccc(C(=N)N)cc2)s1 [Example 18, 4-Carbamimidoylphenyl 2-((3-methoxy-2,2-dimethyl-3-oxopropyl)(methyl)amino)thiazole-5-carboxylate]",8.9

# The next compounds have a lower Ki than those just listed; values first:
row,Ki [nM],Compound
1,4.9,"N=C(N)c1ccc(OC(=O)c2cnc(N3CCC(C(=O)O)CC3)s2)cc1 [Example 2, 1-(5-((4-Carbamimidoylphenoxy)carbonyl)thiazol-2-yl)piperidine-4-carboxylic Acid]"
2,4.8,N=C(N)c1ccc(OC(=O)c2cnc(NCCC(=O)O)s2)cc1 [Example 13]
3,4.8,CN(CC(C)(C)C(=O)O)c1ncc(C(=O)Oc2ccc(C(=N)N)cc2)s1 [Example 19]
4,2.5,"CCN(CCC(=O)OC)c1ncc(C(=O)Oc2ccc(C(=N)N)cc2F)s1 [Example 20, 4-Carbamimidoyl-2-fluorophenyl 2-(ethyl(3-methoxy-3-oxopropyl)amino) thiazole-5-carboxylate]"
5,0.92,"COC(=O)C1CCN(c2ncc(C(=O)Oc3ccc(C(=N)N)cc3F)s2)CC1 [Example 4, 4-Carbamimidoyl-2-fluorophenyl 2-(4-(methoxycarbonyl)piperidin-1-yl)thiazole-5-carboxylate]"
6,0.6,"N=C(N)c1ccc(OC(=O)c2cnc(N3CCC(C(=O)O)CC3)s2)c(F)c1 [Example 7, 1-(5-((4-Carbamimidoyl-2-fluorophenoxy)carbonyl)thiazol-2-yl)piperidine-4-carboxylic Acid]"
